Reference: patent US12123010B2, “Plants having increased tolerance to herbicides” (BASF SE, priority 2017, dated 2024)

Legend:
[1] = system: Transgenic T2 Arabidopsis plants harboring PPO inhibitor tolerance trait; experiment: Lab based germination assay in 48-well plates (Table i); assay type: in vivo, Arabidopsis thaliana; details: construct AMATU_PPO2_TP_hemG (Escherichia coli); in comparison to wild type plants
[2] = system: Transgenic T2 Arabidopsis plants and ARBTH WT MC24 non-transgenic; experiment: Greenhouse post spray test, injury 14 DAT (Tables ii, iii); assay type: in vivo, Arabidopsis thaliana; details: Arabidopsis thaliana, 336 h, Table ii; for pest or weed control at 50 g/ha: 50 g ai/ha; for pest or weed control at 100 g/ha: 100 g ai/ha; for pest or weed control at 200 g/ha: 200 g ai/ha;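 for all read-outs here: value is percent injury to the sprayed plants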
[3] = system: Variant PPO Enzyme R128A, F420V (Amaranthus PPO2); experiment: biochemical; assay type: biochemical; details: variant R128A, F420V vs wild type
[4] = target: Wild Type PPO Enzyme (Amaranthus PPO2, SEQ ID NO: 1) (Amaranthus tuberculatus, UniProt Q0NZW9); experiment: PPO enzyme assay (recombinant), wild type; assay type: biochemical
Chain of Wild Type PPO Enzyme (Amaranthus PPO2, SEQ ID NO: 1) (Q0NZW9 1-534): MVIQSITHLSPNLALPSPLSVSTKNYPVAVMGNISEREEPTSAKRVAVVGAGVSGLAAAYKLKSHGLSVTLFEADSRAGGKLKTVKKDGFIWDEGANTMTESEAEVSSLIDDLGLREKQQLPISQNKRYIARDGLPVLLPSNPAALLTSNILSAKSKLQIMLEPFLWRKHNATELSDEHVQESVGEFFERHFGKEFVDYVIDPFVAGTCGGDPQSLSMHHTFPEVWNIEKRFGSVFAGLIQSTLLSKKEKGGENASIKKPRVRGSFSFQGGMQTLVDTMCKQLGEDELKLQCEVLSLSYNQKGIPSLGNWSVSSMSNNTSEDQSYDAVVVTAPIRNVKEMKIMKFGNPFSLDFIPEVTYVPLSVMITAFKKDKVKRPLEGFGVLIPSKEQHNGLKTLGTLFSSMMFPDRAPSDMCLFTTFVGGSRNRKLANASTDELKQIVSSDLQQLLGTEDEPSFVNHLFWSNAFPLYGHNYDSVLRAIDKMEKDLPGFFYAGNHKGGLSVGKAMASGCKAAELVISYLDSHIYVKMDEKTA

[5] = system: Variant PPO Enzyme F420M (Amaranthus PPO2); experiment: biochemical; assay type: biochemical; details: variant F420M vs wild type
[6] = system: Variant PPO Enzyme L397E, F420M (Amaranthus PPO2); assay type: biochemical; details: variant L397E, F420M vs wild type
[7] = system: Variant PPO Enzyme R128A, F420M (Amaranthus PPO2); assay type: biochemical; details: variant R128A, F420M vs wild type
[8] = AMATU_PPO2_WT event Q, 1 g ai/ha
[9] = AMATU_PPO2_WT event Q, 5 g ai/ha
[10] = AMATU_PPO2_WT event Q, 10 g ai/ha
[11] = AMATU_PPO2_WT event Q, 30 g ai/ha
[12] = ARBTH WT MC24 non-transgenic, 1 g ai/ha + 1% MSO
[13] = ARBTH WT MC24 non-transgenic, 5 g ai/ha + 1% MSO
[14] = ARBTH WT MC24 non-transgenic, 10 g ai/ha + 1% MSO
[15] = ARBTH WT MC24 non-transgenic, 30 g ai/ha + 1% MSO
[16] = ARBTH WT MC24 non-transgenic, 80 g ai/ha + 1% MSO
[17] = ARBTH_PPO1_S305L_Y426M event O, 5 g ai/ha
[18] = ARBTH_PPO1_S305L_Y426M event O, 10 g ai/ha
[19] = ARBTH_PPO1_S305L_Y426M event O, 30 g ai/ha
[20] = ARBTH_PPO1_S305L_Y426M event O, 80 g ai/ha
[21] = ARBTH_PPO1_WT event Q, 1 g ai/ha
[22] = ARBTH_PPO1_WT event Q, 5 g ai/ha
[23] = ARBTH_PPO1_WT event Q, 10 g ai/ha
[24] = ARBTH_PPO1_WT event Q, 30 g ai/ha

Row | SMILES | Tolerance Factor [1] | pest or weed control at 1 g/ha [2, 8] | pest or weed control at 5 g/ha [2, 9] | pest or weed control at 10 g/ha [2, 10] | pest or weed control at 30 g/ha [2, 11] | pest or weed control at 1 g/ha [2, 12] | pest or weed control at 5 g/ha [2, 13] | pest or weed control at 10 g/ha [2, 14] | pest or weed control at 30 g/ha [2, 15] | pest or weed control at 80 g/ha [2, 16] | pest or weed control at 5 g/ha [2, 17] | pest or weed control at 10 g/ha [2, 18] | pest or weed control at 30 g/ha [2, 19] | pest or weed control at 80 g/ha [2, 20] | pest or weed control at 1 g/ha [2, 21] | pest or weed control at 5 g/ha [2, 22] | pest or weed control at 10 g/ha [2, 23] | pest or weed control at 30 g/ha [2, 24] | IC50 [4] | further results
1 | Cn1c(C(F)(F)F)cc(=O)n(-c2nc(Oc3ccccc3OCC(=O)O)c(Cl)cc2F)c1=O [Uracilpyridine 5, 2-[2-[[3-chloro-5-fluoro-6-[3-methyl-2,6-dioxo-4-(trifluoromethyl)pyrimidin-1-yl]-2-pyridyl]oxy]phenoxy]acetic acid] | 1400 | 28% | 90% | 100% | 100% | 100% | 100% | 100% | 100% | 100% | 0% | 0% | 68% | 73% | 45% | 90% | 99% | 100% |  | 
2 | CCOC(=O)COc1ccccc1Oc1nc(-n2c(=O)cc(C(F)(F)F)n(C)c2=O)c(F)cc1F [Uracilpyridine 8, ethyl 2-[2-[[3,5-difluoro-6-[3-methyl-2,6-dioxo-4-(trifluoromethyl)pyrimidin-1-yl]-2-pyridyl]oxy]phenoxy]acetate] | 8202 | 10% | 55% | 100% | 100% | 88% | 100% | 100% | 100% | 100% | 0% | 0% | 0% | 0% | 10% | 30% | 55% | 100% | 496 pM | Tolerance Factor (R/S) [3]: 4531; Tolerance Factor (R/S) [5]: 139
3 | Cn1c(C(F)(F)F)cc(=O)n(-c2nc(Oc3ccccc3OCC(=O)O)c(F)cc2F)c1=O [Uracilpyridine 9, 2-[2-[[3,5-difluoro-6-[3-methyl-2,6-dioxo-4-(trifluoromethyl)pyrimidin-1-yl]-2-pyridyl]oxy]phenoxy]acetic acid] | 1600 | 38% | 68% | 100% | 100% | 85% | 100% | 100% | 100% | 100% | 0% | 0% | 0% | 0% | 10% | 50% | 70% | 98% |  | 
4 | Cn1c(C(F)(F)F)cc(=O)n(-c2nc(Oc3ccccc3OCC(=O)NS(C)(=O)=O)c(Cl)cc2F)c1=O [Uracilpyridine 10, 2-[2-[[3-chloro-5-fluoro-6-[3-methyl-2,6-dioxo-4-(trifluoromethyl)pyrimidin-1-yl]-2-pyridyl]oxy]phenoxy]-N-methylsulfonyl-acetamide] |  | 58% | 100% | 100% | 100% | 100% | 100% | 100% | 100% | 100% | 10% | 8% | 99% | 99% | 50% | 98% | 100% | 100% | 212 pM | pest or weed control at 50 g/ha ([2]; ALOMY_PPO2_R137L_F438V event F): 0%; pest or weed control at 100 g/ha ([2]; ALOMY_PPO2_R137L_F438V event F): 8%; pest or weed control at 200 g/ha ([2]; ALOMY_PPO2_R137L_F438V event F): 10%; pest or weed control at 50 g/ha ([2]; ALOMY_PPO2_R137L_F438V event G): 0%; pest or weed control at 100 g/ha ([2]; ALOMY_PPO2_R137L_F438V event G): 0%; pest or weed control at 200 g/ha ([2]; ALOMY_PPO2_R137L_F438V event G): 5%; pest or weed control at 50 g/ha ([2]; AMATU_PPO2_L397E_F420V event D): 0%; pest or weed control at 100 g/ha ([2]; AMATU_PPO2_L397E_F420V event D): 5%; pest or weed control at 200 g/ha ([2]; AMATU_PPO2_L397E_F420V event D): 13%; pest or weed control at 50 g/ha ([2]; AMATU_PPO2_L397E_F420V event L): 8%; pest or weed control at 100 g/ha ([2]; AMATU_PPO2_L397E_F420V event L): 53%; pest or weed control at 200 g/ha ([2]; AMATU_PPO2_L397E_F420V event L): 20%; pest or weed control at 50 g/ha ([2]; AMATU_PPO2_R128A_F420V event A): 38%; pest or weed control at 100 g/ha ([2]; AMATU_PPO2_R128A_F420V event A): 53%; pest or weed control at 200 g/ha ([2]; AMATU_PPO2_R128A_F420V event A): 68%; pest or weed control at 50 g/ha ([2]; AMATU_PPO2_R128A_F420V event D): 30%; pest or weed control at 100 g/ha ([2]; AMATU_PPO2_R128A_F420V event D): 78%; pest or weed control at 200 g/ha ([2]; AMATU_PPO2_R128A_F420V event D): 88%; Tolerance Factor (R/S) [6]: 30714; Tolerance Factor (R/S) [7]: 7879
